Article doi:10.1101/2025.03.14.643404, “A Bivalent Molecular Glue Linking Lysine Acetyltransferases to Oncogene-induced Cell Death” (bioRxiv, 2025)
Like-named read-outs stand apart in the source and are kept apart here.

How the values were obtained:
p300^WT = p300^WT (Homo sapiens, UniProt Q09472); experiment: TR-FRET binary displacement assay, p300 WT bromodomain; format: binding; conditions: α = Kd binary/Kd ternary
Description: Drugs were digitally dispensed (Tecan D300e) into protein-containing wells, and the plate was allowed to incubate in the dark for 1 hour at room temperature. Emission at 490 nm (terbium) and 520 nm (FITC) was measured on a PHERAstar FS plate reader (BMG Labtech) upon excitation with 337 nm. The ratio of signal at 520 nm to 490 nm was calculated and normalized to DMSO-treated protein.

p300^BD-BCL6^BTB = experiment: TR-FRET ternary assay p300BD-BCL6BTB; format: binding, human
Description: 10 μL reactions containing 10 nM 6x-His- p300^BD or 6x-His-CBP^BD, 200 nM BiotinylatedAvi-BCL6^BTB, 20 nM streptavidin-FITC (SA1001, Thermo), and 1:400 anti-6x-His-terbium (PerkinElmer 61HI2TLF) in buffer containing 20 mM HEPES pH 7.5, 150 mM NaCl, 0.1% BSA, 0.1% NP-40, and 1 mM TCEP were plated in low-volume 384 well plates. Drugs were digitally dispensed (Tecan D300e) into protein-containing wells, and the plate was allowed to incubate in the dark for 1 hour at room temperature. Emission at 490 nm (terbium) and 520 nm (FITC) was measured on a PHERAstar FS plate reader (BMG Labtech) upon excitation with 337 nm. The ratio of signal at 520 nm to 490 nm was calculated and normalized to DMSO-treated protein.

[1] = tested on: BCL6-repressed GFP reporter; experiment: BCL6 reporter assay (BCL6-repressed GFP) in K422 cells; format: cell-based, human; conditions: 24 h, highest GFP signal
Description: KARPAS422 cells were lentivirally transduced with a construct containing the reporter. Description of the reporter construct has been published previously. After selection, cells were plated and treated with indicated amount of compound for 24 hours. Cells were washed in 2.5% FBS/PBS, stained with 1:250 v/v of 7-AAD (BD 559925) to distinguish live from dead cells, and harvested for flow cytometry on a BD Accuri. Given the polyclonal population after transduction, the area under the curve of the histogram representing FITC signal across all live cells was calculated as an integrative measure of total GFP signal. A GFP-positive gate two standard deviations from the mean was drawn from non-transduced cells and the area past a constant threshold was calculated and normalized to the signal from cells treated with DMSO.

BCL6^BTB = molecular target: T1, BCL6^BTB (Homo sapiens, UniProt P41182+Q09472, C67R/C84N/C8Q); experiment: Isothermal calorimetry, BCL6BTB titrations; format: binding; conditions: ITC; for Kd: 25 °C
T1 construct: human BCL6 (residues 5–129; Uniprot: P41182); Trx (N, cleaved yes); 6xHis (N, cleaved yes); made in house; host or cells: bacteria (pET-48b(+) vector)
Description: 12 hours prior to performing ITC, frozen stocks of 6xHis-p300^BD and BCL6^BTB were dialyzed for two hours in ITC buffer at 4°C (50 mM HEPES pH 7.4, 100 μM TCEP, 150 mM NaCl), followed by dialysis in fresh ITC buffer overnight at 4°C to remove glycerol and equalize protein mixtures. Samples were centrifuged at 10,000g for 10 min to remove any precipitate. In all titrations, DMSO was added to protein mixtures to match the DMSO concentration of ligand dissolved in ITC buffer. For binary assays with TCIP3, dialyzed 6xHis-p300^BD or BCL6^BTB were titrated from the syringe into a cell containing TCIP3 dissolved in ITC buffer. For p300 titrations, 50 μM or 25 μM protein was titrated into 5 μM or 2.5 μM, respectively, of TCIP3. For BCL6 titrations, 70 μM or 40 μM protein was titrated into 7 μM or 5 μM, respectively, of TCIP3. For ternary titrations, 20× 6xHis-p300^BD was incubated with 1x TCIP3 in the cell to drive saturation of the binary complex, followed by a titration of 10x BCL6^BTB from the syringe, at 310 rpm stirring at 25°C. The following concentrations were used in each run: 15 μM BCL6^BTB, 30 μM p300, and 1.5 μM TCIP3; 18 μM BCL6 ^BTB, 36 μM 6xHis-p300^BD, and 1.8 μM TCIP3; or 10 μM BCL6 ^BTB, 20 μM 6xHis-p300^BD, and 1 μM TCIP3. Alternatively, 20x BCL6^BTB was incubated with 1x TCIP3 in the cell to drive saturation of the binary complex, followed by a titration of 10× 6xHis-p300^BD from the syringe, at 310 rpm stirring at 25°C. The following concentrations were used in each run: 30 μM BCL6, 15 μM 6xHis-p300^BD, and 1.5 μM TCIP3; 20 μM BCL6 ^BTB, 10 μM 6xHis-p300^BD, and 1 μM TCIP3; or 40 μM BCL6 ^BTB, 20 μM 6xHis-p300^BD, and 2 μM TCIP3. The first one or two injections and outliers from instrument noise were routinely excluded. Data were fit to a one-site model using MicroCal LLC Origin software. The following injection parameters were used for each run: (Total injection number: 35; Cell temp: 25 °C; Ref power: 10; Initial delay: 250 s; stirring speed: 310; Feedback mode: High; volume: 8 μL; Duration: 13.7 s; Filter period: 2; initial injection volume: 2 μL).

Sequence of p300^WT (Q09472 1049-1156 limits assumed): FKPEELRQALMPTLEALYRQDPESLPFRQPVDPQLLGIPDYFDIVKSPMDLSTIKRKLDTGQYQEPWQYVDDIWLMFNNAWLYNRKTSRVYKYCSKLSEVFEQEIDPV

## CNC(=O)COc1cc2cc(Nc3nc(N4CCC(C(=O)N5CCN(CCC(=O)N6CCC(n7nc(N8CCCc9cc(-c%10cnn(C)c%10)c(C(F)F)cc98)c8c7CCN(C(=O)NC)C8)CC6)CC5)CC4)ncc3Cl)cc(OC)c2n(C)c1=O [TCIP3]
p300^WT
  cooperativity α: 4.2
p300^BD-BCL6^BTB
  TR-FRET signal AUC, times higher than NEG1: 23 times
  TR-FRET signal AUC, times higher than NEG2: 18 times
[1]
  GFP signal relative to DMSO treatment: 10 times
BCL6^BTB; BCL6BTB titrated into TCIP3, read-out: Kd, binary BCL6:TCIP3
  Kd: 265 nM
BCL6^BTB; BCL6BTB titrated into p300BD-saturated TCIP3, read-out: Kd, BCL6 into p300:TCIP3 (ternary)
  Kd: 19.8 nM
BCL6^BTB; α = Kd binary/Kd ternary
  α BCL6 into p300:TCIP3: 13
